{"source": "patent US20250281424A1", "about": "(New York Blood Center, Inc, priority 2020, published 2025)", "biological_target": "T1, human PF4 (Homo sapiens, UniProt P02776)", "T1 construct": "PF4 is a 70 amino acid, lysine-rich 7.8 kDa platelet-specific protein; made in house; host or cells: Escherichia coli BL21DE3 pLysS (pT7-7) and/or Drosophila S2 cells", "T1 sequence (P02776 32-101)": "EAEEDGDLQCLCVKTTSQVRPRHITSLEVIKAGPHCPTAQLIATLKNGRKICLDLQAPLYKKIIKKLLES", "assay": "Inhibition of PF4 tetramer formation (BS3 cross-linking, SDS-PAGE)", "format": "biochemical", "settings": "for inhibition at 1 µM: 1 μM inhibitor; for inhibition at 1 µM / inhibition at 3 µM / inhibition at 10 µM / inhibition at 5 µM: read-out: % inhibition of PF4 tetramer formation at single concentration of inhibitor; for inhibition at 3 µM: 3 μM inhibitor (column A); for IC50: read-out: IC50 of PF4 tetramer formation inhibition; for inhibition at 10 µM: 10 μM inhibitor (column A); for inhibition at 5 µM: 5 μM inhibitor", "experimental": "Compounds of Examples 1-38, 65-301, 303, 305, 307, 309, 311, 313, 314, 316, and 318-404 were tested using SDS PAGE analysis of BS3 crosslinked PF4 for their ability to prevent PF4 tetramer formation. […] See, Suvarna et al., Throm. Res, 122:211-220 (2008), which is hereby incorporated by reference, at least for a detailed description of this technique.\ncDNA encoding human PF4 was cloned into the plasmid μMT/BiPN5-His A (Invitrogen Corp., Carlsbad CA) for expression in the Drosophila Expression System (Invitrogen, Carlsbad, CA). Cloning was performed using Bg1 II and Age I cloning sites. A hexanucleotide encoding Bg1 II site was then eliminated by site-directed mutagenesis so that the expressed protein contained full-length wild type (wt) PF4 or PF4^K50E with an identical sequence as their counterparts expressed in E. coli. See, method described in Sachais et al (Sachais, B. S. et al. (2012). Blood 119(25): 5955-5961). PF4 expression was induced by adding copper sulfate (0.5 mM). The induced S2 cells were incubated in serumfree Insect-Xpress™ media (Lonza, Walkersville, MD) for 3-5 days; supernatants were collected, sodium azide (0.02% final concentration) and EDTA (2.5 mM final concentration) were added, and the media were filtered through an Express® PLUS 0.22 μm filter (Millipore Corp., Billerica, MA).\nWild-type (WT) human PF4 in the pT7-7 vector (Novagen, Madison, WI) was expressed in the Escherichia coli strain BL21DE30 pLysS (Stratagene, La Jolla, CA), and purified and characterized as described by Rauova et al. (Rauova, L. et al. (2006). Blood 107(6): 2346-2353) and Park et al., (Blood, 75:1290-1295 (1990)), which are hereby incorporated by reference. Briefly, recombinant protein was isolated from the supernatant of the bacterial lysate by affinity chromatography using a HiTrap high-performance (HP) affinity column. WT PF4 was purified from the media on a heparin HiTrap® column on an ÄTKAPrime™ system (GE Healthcare) at 4° C. in Tris (10 mM), EDTA (1 mM), and pH 8 buffer. Media was loaded in buffer containing NaCl (0.5 M) and PF4 was eluted at 1.8 M NaCl using a linear gradient. Fractions containing purified PF4 as detected by silver staining of 12% NuPAGE Bis-Tris gels (Invitrogen) were pooled, concentrated and buffer exchanged into 50 mM HEPES, 0.5 M NaCl, pH—7.2 using an Amicon® Ultra centrifugal filter (3K NMWL, Millipore Corp). Protein was quantified using a BCA assay.\nCompounds of Examples 1-38, 65-196, and 209-228 were then tested for their ability to inhibit PF4 tetramer formation using a cross-linking assay as described in Rauova cited above. Specifically, hPF4 (10 μg/ml) in phosphate-buffered saline (PBS) was incubated at 37° C. for 15 min in the absence of the antagonistic compounds (control sample) and presence of compounds. Cross-linking and SDS-PAGE analysis were then performed as described in “Analysis of PF4 multimerization” of Rauova. The relative amounts of PF4 in each of the monomer, dimer, trimer and tetramer form were calculated by analyzing the samples on a 12% SDS-polyacrylamide gel under reducing conditions. Bands were quantified using the Kodak ID Image Analysis system (Kodak, Rochester, NY). The SigmaMarker™ reagent served as the molecular weight standard. Data was compiled and bar graphed as % PF4 for the tetramer, trimer, dimer, and monomer as a function of concentration for the test and control samples.\nThis experiment was performed in a manner similar to experiment 1, but PF4 (10 μg/ml) in PBS was independently incubated with compounds of Examples 1-38, 65-196, and 209-228 for 60 min at room temperature, followed by the addition of cross-linking reagent bis(sulfosuccinimidyl)suberate (0.2 mM) for 30 min at room temperature. The reaction was stopped by adding NuPAGE® lithium dodecyl sulfate (LDS) sample buffer, and denatured by heating to 70° C. for 10 min according to the manufacturer's instructions. […]", "data": [{"smiles": "CC(C)(C)OC(=O)N1CCCC[C@@H]1C(=O)C1C(=O)c2ccc(C(=O)c3ccc4c(c3)C(=O)C(C(=O)[C@H]3CCCCN3C(=O)OC(C)(C)C)C4=O)cc2C1=O", "note": "(stereo partly drawn) [Example 275, tert-butyl (2R)-2-(5-{2-[(2R)-1-[(tert-butoxy)carbonyl]piperidine-2-carbonyl]-1,3-dioxo-2,3-dihydro-1H-indene-5-carbonyl}-1,3-dioxo-2,3-dihydro-1H-indene-2-carbonyl)piperidine-1-carboxylate]", "values": [{"measurement": "inhibition at 1 µM", "result": 5, "unit": "%"}, {"measurement": "inhibition at 3 µM", "result": 31, "unit": "%"}, {"measurement": "IC50", "result": 3, "unit": "µM"}]}, {"smiles": "O=C1c2ccc(Oc3ccc4c(c3)C(=O)C(C(=O)C3CCCS3(=O)=O)C4=O)cc2C(=O)C1C(=O)C1CCCS1(=O)=O", "note": "(centres unmarked) [Example 370, 2-(5-{[2-(1,1-dioxo-1λ^6-thiolane-2-carbonyl)-1,3-dioxo-2,3-dihydro-1H-inden-5-yl]oxy}-1,3-dioxo-2,3-dihydro-1H-indene-2-carbonyl)-1λ^6-thiolane-1,1-dione]", "values": [{"measurement": "inhibition at 1 µM", "result": 3, "unit": "%"}, {"measurement": "inhibition at 3 µM", "result": 6, "unit": "%"}]}, {"smiles": "CCCC(=O)C1C(=O)c2ccc(S(=O)(=O)c3ccc4c(c3)C(=O)C(C(=O)CCC)C4=O)cc2C1=O", "note": "(centres unmarked) [Example 322, 2-butanoyl-5-[(2-butanoyl-1,3-dioxo-2,3-dihydro-1H-inden-5-yl)sulfonyl]-2,3-dihydro-1H-indene-1,3-dione]", "values": [{"measurement": "inhibition at 10 µM", "result": 40, "unit": "%"}]}, {"smiles": "COCCNC(=O)C1C(=O)c2ccc(S(=O)(=O)c3ccc4c(c3)C(=O)C(C(=O)NCCOC)C4=O)cc2C1=O", "note": "(centres unmarked) [Example 73, 5,5′-sulfonylbis(n-(2-methoxyethyl)-1,3-dioxo-2,3-dihydro-1h-indene-2-carboxamide)]", "values": [{"measurement": "inhibition at 5 µM", "result": 0, "unit": "%"}, {"measurement": "inhibition at 10 µM", "result": 0, "unit": "%"}]}, {"smiles": "CC(=O)NCCCC(=O)C1C(=O)c2ccc(Oc3ccc4c(c3)C(=O)C(C(=O)CCCNC(C)=O)C4=O)cc2C1=O", "note": "(centres unmarked) [Example 265, N-[4-(5-{[2-(4-acetamidobutanoyl)-1,3-dioxo-2,3-dihydro-1H-inden-5-yl]oxy}-1,3-dioxo-2,3-dihydro-1H-inden-2-yl)-4-oxobutyl]acetamide]", "values": [{"measurement": "inhibition at 1 µM", "result": 18, "unit": "%"}, {"measurement": "inhibition at 3 µM", "result": 34, "unit": "%"}]}, {"smiles": "O=C(c1ccc2c(c1)C(=O)C(C(=O)NC1CCOCC1)C2=O)c1ccc2c(c1)C(=O)C(C(=O)NC1CCOCC1)C2=O", "note": "(centres unmarked) [Example 72, 5,5′-carbonylbis(1,3-dioxo-n-(tetrahydro-2h-pyran-4-yl)-2,3-dihydro-1h-indene-2-carboxamide)]", "values": [{"measurement": "inhibition at 5 µM", "result": 43, "unit": "%"}, {"measurement": "inhibition at 10 µM", "result": 52, "unit": "%"}]}, {"smiles": "O=C(c1ccc2c(c1)C(=O)C(Br)C2=O)c1ccc2c(c1)C(=O)C(Br)C2=O", "note": "(centres unmarked) [Example 244, 2-bromo-5-(2-bromo-1,3-dioxo-2,3-dihydro-1H-indene-5-carbonyl)-2,3-dihydro-1H-indene-1,3-dione]", "values": [{"measurement": "inhibition at 1 µM", "result": 21, "unit": "%"}, {"measurement": "inhibition at 3 µM", "result": 43, "unit": "%"}]}, {"smiles": "O=C(COc1ccccc1)C1C(=O)c2ccc(S(=O)(=O)c3ccc4c(c3)C(=O)C(C(=O)COc3ccccc3)C4=O)cc2C1=O", "note": "(centres unmarked) [Example 144, 5-{[1,3-dioxo-2-(2-phenoxyacetyl)-2,3-dihydro-1H-inden-5-yl]sulfonyl}-2-(2-phenoxyacetyl)-2,3-dihydro-1H-indene-1,3-dione]", "values": [{"measurement": "IC50", "result": 4.7, "unit": "µM"}]}, {"smiles": "CO[C@@H]1O[C@H](C(=O)C2C(=O)c3ccc(S(=O)(=O)c4ccc5c(c4)C(=O)C(C(=O)[C@H]4O[C@@H](OC)[C@H]6OC(C)(C)O[C@@H]64)C5=O)cc3C2=O)[C@H]2OC(C)(C)O[C@H]12", "note": "(stereo partly drawn) [Example 220, 2-[(3aS,4S,6R,6aS)-6-methoxy-2,2-dimethyl-tetrahydro-2H-furo[3,4-d][1,3]dioxole-4-carbonyl]-5-({2-[(3aS,4S,6R,6aS)-6-methoxy-2,2-dimethyl-tetrahydro-2H-furo[3,4-d][1,3]dioxole-4-carbonyl]-1,3-dioxo-2,3-dihydro-1H-inden-5-yl}sulfonyl)-2,3-dihydro-1H-indene-1,3-dione]", "values": [{"measurement": "inhibition at 5 µM", "result": 90, "unit": "%"}, {"measurement": "inhibition at 10 µM", "result": 92, "unit": "%"}, {"measurement": "IC50", "result": 2.5, "unit": "µM"}]}, {"smiles": "COCCOCCOCCNC(=O)C1C(=O)c2ccc(Oc3ccc4c(c3)C(=O)C(C(=O)NCCOCCOCCOC)C4=O)cc2C1=O", "note": "(centres unmarked) [Example 384, N-{2-[2-(2-methoxyethoxy)ethoxy]ethyl}-5-{[2-({2-[2-(2-methoxyethoxy)ethoxy]ethyl}carbamoyl)-1,3-dioxo-2,3-dihydro-1H-inden-5-yl]oxy}-1,3-dioxo-2,3-dihydro-1H-indene-2-carboxamide]", "values": [{"measurement": "inhibition at 1 µM", "result": 4, "unit": "%"}, {"measurement": "inhibition at 3 µM", "result": 9, "unit": "%"}]}, {"smiles": "CC(C)(C)OC(=O)N[C@@H](C(=O)C1C(=O)c2ccc(S(=O)(=O)c3ccc4c(c3)C(=O)C(C(=O)[C@H](NC(=O)OC(C)(C)C)c3ccccc3)C4=O)cc2C1=O)c1ccccc1", "note": "(some centres unmarked) [Example 182]", "values": [{"measurement": "inhibition at 5 µM", "result": 74, "unit": "%"}, {"measurement": "inhibition at 10 µM", "result": 88, "unit": "%"}, {"measurement": "IC50", "result": 5.7, "unit": "µM"}]}, {"smiles": "O=C1c2ccc(S(=O)(=O)c3ccc4c(c3)C(=O)C(C(=S)NC3CC3)C4=O)cc2C(=O)C1C(=S)NC1CC1", "note": "(centres unmarked) [Example 329, N-cyclopropyl-5-{[2-(cyclopropylcarbamothioyl)-1,3-dioxo-2,3-dihydro-1H-inden-5-yl]sulfonyl}-1,3-dioxo-2,3-dihydro-1H-indene-2-carbothioamide]", "values": [{"measurement": "inhibition at 1 µM", "result": 22, "unit": "%"}, {"measurement": "inhibition at 3 µM", "result": 50, "unit": "%"}]}, {"smiles": "O=C(c1ccc2c(c1)C(=O)C(C(=O)COc1ccccc1)C2=O)c1ccc2c(c1)C(=O)C(C(=O)COc1ccccc1)C2=O", "note": "(centres unmarked) [Example 143, 5,5-[1,3-dioxo-2-(2-phenoxyacetyl)-2,3-dihydro-1H-indene-5-carbonyl]-2-(2-phenoxyacetyl)-2,3-dihydro-1H-indene-1,3-dione]", "values": [{"measurement": "IC50", "result": 7, "unit": "µM"}]}, {"smiles": "O=C(c1ccc2c(c1)C(=O)C(C(=O)CC1CC1)C2=O)c1ccc2c(c1)C(=O)C(C(=O)CC1CC1)C2=O", "note": "(centres unmarked) [Example 140, 2-(2-cyclopropylacetyl)-5-[2-(2-cyclopropylacetyl)-1,3-dioxo-2,3-dihydro-1H-indene-5-carbonyl]-2,3-dihydro-1H-indene-1,3-dione]", "values": [{"measurement": "inhibition at 5 µM", "result": 92, "unit": "%"}, {"measurement": "inhibition at 10 µM", "result": 93, "unit": "%"}, {"measurement": "IC50", "result": 4.7, "unit": "µM"}]}, {"smiles": "C[C@H](NC(=O)C1C(=O)c2ccc(Oc3ccc4c(c3)C(=O)C(C(=O)N[C@@H](C)C(=O)O)C4=O)cc2C1=O)C(=O)O", "note": "(stereo partly drawn) [Example 313, (2S)-2-({5-[(2-{[(1S)-1-carboxyethyl]carbamoyl}-1,3-dioxo-2,3-dihydro-1H-inden-5-yl)oxy]-1,3-dioxo-2,3-dihydro-1H-inden-2-yl}formamido) propanoic acid]", "values": [{"measurement": "inhibition at 1 µM", "result": 31, "unit": "%"}, {"measurement": "inhibition at 3 µM", "result": 67, "unit": "%"}]}, {"smiles": "O=C(c1ccc2c(c1)C(=O)C(C(=O)C1CC1)C2=O)c1ccc2c(c1)C(=O)C(C(=O)C1CC1)C2=O", "note": "(centres unmarked) [Example 401]", "values": [{"measurement": "inhibition at 1 µM", "result": 22, "unit": "%"}, {"measurement": "inhibition at 3 µM", "result": 23, "unit": "%"}]}, {"smiles": "CC[C@H](C)[C@H](NC(=O)C1C(=O)c2ccc(S(=O)(=O)c3ccc4c(c3)C(=O)C(C(=O)N[C@H](C(=O)OC)[C@@H](C)CC)C4=O)cc2C1=O)C(=O)OC", "note": "(stereo partly drawn) [Example 333, methyl (2S,3S)-2-({5-[(2-{[(2S,3S)-1-methoxy-3-methyl-1-oxopentan-2-yl]carbamoyl}-1,3-dioxo-2,3-dihydro-1H-inden-5-yl)sulfonyl]-1,3-dioxo-2,3-dihydro-1H-inden-2-yl}formamido)-3-methylpentanoate]", "values": [{"measurement": "inhibition at 1 µM", "result": 15, "unit": "%"}, {"measurement": "inhibition at 3 µM", "result": 21, "unit": "%"}]}]}
